Read-outs that look alike come from different tables or passages of the source.
Columns and labels:
HBV DNA [1] = experiment: HBV DNA in culture supernatants of HBV-infected PHH by qPCR, single agents and double combinations (Examples 1-4); format: cell-based, HBV genotype D; primary human hepatocytes; conditions: Hepatitis B virus
Experimental: The day PHH seeding date was defined as day 0.
The PHH were infected with 400 HBV GE/cell of HBV genotype D type HBV on day 1.
The test articles were further diluted with the culture medium to the final test concentrations.
All the test articles were further diluted 100 times with the culture medium. The final concentration of DMSO in the culture medium was […].
The compounds were tested at 7 concentrations, 3-fold dilution, in triplicate.
Four two-way combinations were performed on a 5×5 matrix, in triplicate plates. Transfection reagent was present in all wells. The culture medium containing the articles were refreshed every 1 or 2 days.
DNA in the culture supernatants harvested on days 8 was isolated with QIAamp 96 DNA Blood Kit (Qiagen-51162). For each sample, 100 μl of each culture supernatant was used to extract DNA. The DNA was eluted with 180 μl of AE. HBV DNA in the culture supernatants was quantified by quatitative PCR using primers and probes outlined in Table 3. Percent inhibition of HBV DNA was calculated with the formula below:
% Inh. HBV DNA=[1−value of sample/AVG. value of Medium control]×100.
Results of double combination studies were analyzed using MacSynergy II software (Prichard and Shipman, 1992).

HBsAg [2] = experiment: Serum HBsAg in pHBV1.3 hydrodynamic injection mouse model of HBV (Example 12); format: in vivo, NOD.CB17-Prkdc scid/J mice; HBV genotype D, serotype ayw; conditions: once daily oral from Day 0: RNA destabilizer 10 mg/kg, encapsidation inhibitor 100 mg/kg, nucleos(t)ide analog 0.4 mg/kg, group mean ± SEM, n=7 or 8, from negative control
Experimental: On Day −7, 10 micrograms of the plasmid pHBV1.3 (constructed based on details provided in Guidotti, L., et al., Journal of Virology, 1995, 69(10): 6158-6169) was administered to NOD.CB 17-Prkdc^scid/J mice via hydrodynamic injection (HDI; rapid 1.6 mL injection into the tail vein). […] As readouts of the anti-HBV effect of the treatments, serum HBV DNA and serum HBsAg were assessed. Serum HBV DNA concentration in mice was measured using a quantitative PCR assay following total DNA extraction using previously published primers and probe sequences (Tanaka, Y., et al., Journal of Medical Virology, 2004, 72: 223-229). Serum HBsAg concentration in mice was measured using a commercially available ELISA kit (HBsAg EIA 3.0 480 Test Kit, Bio-Rad).
Animals were treated with RNA destabilizer as follows: Starting on Day 0, a 10 mg/kg dosage of RNA destabilizer was administered orally to animals on a once-daily frequency for a total of seven doses across the duration of the study. Animals were treated with encapsidation inhibitor as follows: Starting on Day 0, a 100 mg/kg dosage of encapsidation inhibitor was administered orally to animals on a once-daily frequency for a total of seven doses across the duration of the study. Animals were treated with nucleos(t)ide analog as follows: Starting on Day 0, a 0.4 mg/kg dosage of nucleos(t)ide analog was administered orally to animals on a once-daily frequency for a total of seven doses across the duration of the study. The RNA destabilizer, the encapsidation inhibitor, and nucleos(t)ide analog were each dissolved in the same co-solvent formulation for administration and negative control animals were administered the co-solvent formulation alone. To calculate treatment-specific effects, the treated groups are compared against negative control (vehicle treated) animals.
The effect of these treatments was determined by collecting blood on Days −1 (prior to study's treatment phase), 4, and 7 and analyzing it for serum HBV DNA and HBsAg content.

HBsAg [3] = experiment: Liver HBsAg by ELISA in AAV-HBV mouse model (Example 18); format: in vivo, C57BL/6 mice; HBV serotype Ayw, genotype D; conditions: Study Day 42; siRNA 3 mg/kg s.c. Days 0 and 28, encapsidation inhibitor 100 mg/kg and/or TDF 1 mg/kg oral daily Days 0-41; group mean ± SEM, n=6
Experimental: (§1) Prior to treatment start, 1×10^11 viral genomes of an adeno-associated virus (AAV) vector carrying a 1.3-fold overlength copy of an HBV genome (serotype Ayw, genotype D) was administered to C57BL/6 mice via intravenous injection. Introduction of this viral vector results in the expression of HBV DNA and HBV surface antigen (HBsAg) amongst other HBV products. Serum HBV DNA levels in mice was measured using a quantitative polymerase chain reaction (QPCR) assay, HBsAg in serum and liver of mice was measured using an enzyme-linked immunosorbent assay (ELISA), and anti-HBsAg antibodies were measured using ELISA.
(§2) Treatment effects on serum HBV DNA were determined by collecting a small amount of blood on Days 0 (pre-treatment) and 14, as well as from terminal blood collections at Day 42. Treatment effects on HBsAg in serum and liver were determined from terminal sample collections at Day 42.
(§3) Any individual animal samples measured to fall below assay lower limit of quantitation (LLOQ) were reported as the LLOQ value.

HBV DNA [4] = format: in vivo, C57BL/6 mice; HBV serotype Ayw, genotype D; conditions: for Serum HBV DNA: group mean ± SEM, n=6
Experimental: as §1, §2, §3

SMILES: CC(C)OC(=O)[C@H](C)N[P@](=O)(CO[C@H](C)Cn1cnc2c(N)ncnc21)Oc1ccccc1 [TAF, tenofovir alafenamide]
- EC50 (HBV DNA [1]): 0.083 nM

SMILES: CC(C)OC(=O)OCOP(=O)(CO[C@H](C)Cn1cnc2c(N)ncnc21)OCOC(=O)OC(C)C.O=C(O)/C=C/C(=O)O [TDF, tenofovir disoproxil fumarate, reference compound]
- Serum HBsAg log reduction (HBsAg [2]; Day 4): −0.01 ± 0.12 log
- Serum HBsAg log reduction (HBsAg [2]; Day 7): 0.10 ± 0.07 log
- Liver HBsAg (HBsAg [3]): 1.77 ± 0.03 log10 IU/mg liver protein
- Serum HBV DNA (HBV DNA [4]; Day 0 (pre-treatment)): 4.31 ± 0.10 log10 copies/microliter
- Serum HBV DNA (HBV DNA [4]; Day 14, siRNA 3 mg/kg s.c. Days 0 and 28, encapsidation inhibitor 100 mg/kg and/or TDF 1 mg/kg oral daily): 3.11 ± 0.15 log10 copies/microliter
- Serum HBV DNA (HBV DNA [4]; Day 42, siRNA 3 mg/kg s.c. Days 0 and 28, encapsidation inhibitor 100 mg/kg and/or TDF 1 mg/kg oral daily Days 0-41): 3.58 ± 0.14 log10 copies/microliter
- HBV DNA inhibition, decrease from Day 0 to Day 42 (HBV DNA [4]; serum, AAV-HBV mice, siRNA 3 mg/kg s.c. Days 0 and 28, encapsidation inhibitor 100 mg/kg and/or TDF 1 mg/kg oral daily): 0.73 log10
